Test results taken from the supplement of paper PMC10307832.

Columns and labels:
Experiment in all cases: relative viability (nuclei count vs DMSO), 5 days (fraction); higher = more cells survive
ABC-1 = system: ABC-1
Procedure, shortened: (§1)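 Relative viability divides the nuclei count in treated wells by that in vehicle wells. Lung cancer cell lines were seeded in 1536-well plates, dosed by pin tool the next day, and fixed and stained after 5 days in one step with final 0.05% Triton X-100, 1% formaldehyde and 1 ug/ml Hoechst. Dosing was a single drug or a fixed anchor-drug dose plus five library-drug doses (not always all listed) in √10 steps, and values are medians of duplicate plates imaged at 4×.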

NCI-H1792 = system: NCI-H1792
Procedure, shortened: as §1

EPLC-272H = system: EPLC-272H
Procedure, shortened: as §1

NCI-H460 = system: NCI-H460
Procedure, shortened: as §1

NCI-H1651 = system: NCI-H1651
Procedure, shortened: as §1

NCI-H2228 = system: NCI-H2228
Procedure, shortened: as §1

SK-MES-1 = system: SK-MES-1
Procedure, shortened: as §1

NCI-H650 = system: NCI-H650
Procedure, shortened: as §1

NCI-H661 = system: NCI-H661
Procedure, shortened: as §1

HCC-78 = system: HCC-78
Procedure, shortened: as §1

LCLC-97TM1 = system: LCLC-97TM1
Procedure, shortened: as §1

LCLC-103H = system: LCLC-103H
Procedure, shortened: as §1

`C=C1C(=O)O[C@@H](CCCCCCCC)[C@@H]1C(=O)O` [C-75] + O=C(c1cc(Cc2n[nH]c(=O)c3ccccc23)ccc1F)N1CCN(C(=O)C2CC2)CC1 [Olaparib] (partner 8 µM) showed a relative viability (ABC-1; first compound 0.08 µM) of 0.862, a relative viability (ABC-1; first compound 0.253 µM) of 0.703 and a relative viability (ABC-1; first compound 0.8 µM) of 0.811. It also gave a relative viability (ABC-1; first compound 2.53 µM) of 0.719, a relative viability (ABC-1; first compound 8 µM) of 0.792 and a relative viability (NCI-H1792; first compound 0.08 µM) of 0.384. It also gave a relative viability (NCI-H1792; first compound 0.253 µM) of 0.438, a relative viability (NCI-H1792; first compound 0.8 µM) of 0.462 and a relative viability (NCI-H1792; first compound 2.53 µM) of 0.306. It also gave a relative viability (NCI-H1792; first compound 8 µM) of 0.431, a relative viability (EPLC-272H; first compound 0.08 µM) of 0.874 and a relative viability (EPLC-272H; first compound 0.253 µM) of 0.878. The relative viability (EPLC-272H; first compound 0.8 µM) was 0.702, the relative viability (EPLC-272H; first compound 2.53 µM) was 0.701 and the relative viability (EPLC-272H; first compound 8 µM) was 0.436. It also gave a relative viability (NCI-H460; first compound 0.08 µM) of 0.413, a relative viability (NCI-H460; first compound 0.253 µM) of 0.503 and a relative viability (NCI-H460; first compound 0.8 µM) of 0.366. It also gave a relative viability (NCI-H460; first compound 2.53 µM) of 0.356, a relative viability (NCI-H460; first compound 8 µM) of 0.377 and a relative viability (NCI-H1651; first compound 0.08 µM) of 0.196. The relative viability (NCI-H1651; first compound 0.253 µM) was 0.206, the relative viability (NCI-H1651; first compound 0.8 µM) was 0.189 and the relative viability (NCI-H1651; first compound 2.53 µM) was 0.173. For the same molecule, the relative viability (NCI-H1651; first compound 8 µM) was 0.167, the relative viability (NCI-H2228; first compound 0.08 µM) was 0.709 and the relative viability (NCI-H2228; first compound 0.253 µM) was 0.897. For the same molecule, the relative viability (NCI-H2228; first compound 0.8 µM) was 0.494, the relative viability (NCI-H2228; first compound 2.53 µM) was 0.543 and the relative viability (NCI-H2228; first compound 8 µM) was 0.414. The relative viability (SK-MES-1; first compound 0.08 µM) was 0.78, the relative viability (SK-MES-1; first compound 0.253 µM) was 0.772 and the relative viability (SK-MES-1; first compound 0.8 µM) was 0.724. It also gave a relative viability (SK-MES-1; first compound 2.53 µM) of 0.638, a relative viability (SK-MES-1; first compound 8 µM) of 0.64 and a relative viability (NCI-H650; first compound 0.08 µM) of 0.397. For the same molecule, the relative viability (NCI-H650; first compound 0.253 µM) was 0.438, the relative viability (NCI-H650; first compound 0.8 µM) was 0.457 and the relative viability (NCI-H650; first compound 2.53 µM) was 0.397. For the same molecule, the relative viability (NCI-H650; first compound 8 µM) was 0.4, the relative viability (NCI-H661; first compound 0.08 µM) was 0.725 and the relative viability (NCI-H661; first compound 0.253 µM) was 0.805. It also gave a relative viability (NCI-H661; first compound 0.8 µM) of 0.693, a relative viability (NCI-H661; first compound 2.53 µM) of 0.66 and a relative viability (NCI-H661; first compound 8 µM) of 0.699. It also gave a relative viability (HCC-78; first compound 0.08 µM) of 0.838, a relative viability (HCC-78; first compound 0.253 µM) of 1.08 and a relative viability (HCC-78; first compound 0.8 µM) of 0.81. For the same molecule, the relative viability (HCC-78; first compound 8 µM) was 0.823, the relative viability (LCLC-97TM1; first compound 0.08 µM) was 0.349 and the relative viability (LCLC-97TM1; first compound 0.253 µM) was 0.402. For the same molecule, the relative viability (LCLC-97TM1; first compound 0.8 µM) was 0.494, the relative viability (LCLC-97TM1; first compound 2.53 µM) was 0.338 and the relative viability (LCLC-97TM1; first compound 8 µM) was 0.303. It also gave a relative viability (LCLC-103H; first compound 0.08 µM) of 0.8 and a relative viability (LCLC-103H; first compound 0.253 µM) of 0.719.
